Experimental data from PubChem BioAssay AID651914 (NMMLSC, 2012).

Test system: AM2.2-GPR32 FAP cells, fluorogen binding, flow cytometry MCF
Test: interference with FAP fluorogen signal – AM2.2 cells, flow cytometry, powder set 5, counter-screen for beta2AR agonist internalization project, dose response (AID 651914)

Structure (SMILES)	EC50
CN(CC(=O)N1CCN(c2ccc(F)cc2)CC1)S(=O)(=O)c1ccc(Br)cc1	410 nM
Cc1cccc(C(=O)Nc2ccc(S(=O)(=O)N3CCCCC3C)cc2)c1 (stereo not drawn)	2900 nM
CCC(=O)Nc1ccc(S(=O)(=O)N2CCCCC2CC)cc1 (stereo not drawn)	7.5 nM
